Measured values as given in patent publication US20080182859A1 (Curis, Inc., priority 2006, published 2008).
Structures can show the parent of a compound that is named as a salt.

Assays:
Assay type in all cases: cell-based
[1] = test system: sonic hedgehog pathway; experiment: Human hedgehog reporter assay HEPM-GliLuc (HGL); conditions: HepM human embryonic palatal mesenchymal cells, Gli-luciferase reporter
Description: (§1) Mouse (TM3: mouse Leydig cells; S12: mouse embryonic mesenchymal cells) and human (Daoy: human medulloblastoma cell; HepM: human embryonic palatal mesenchymal cell) cell lines are used to screen small molecules for their ability to modulate the activity of the sonic hedgehog pathway (Table 1, Table 2, and Table 3). Stable hedgehog pathway reporter cell lines are established by specific antibiotic selection following transfection of a reporter plasmid containing a luciferase gene located directly downstream from the gli promoter. Consequently, any observable changes in cellular luciferase activity may be attributed to changes in sonic hedgehog pathway activity in mouse and human cells, respectively, since gli is the major by-product of this pathway. To calculate activity, we generate an eleven point dose curve for each compound using 1:3 dilutions in 96 well assay plates. Each plate tested also contains low and high control to establish maximal pathway activation so to establish/compare a percentage activation of each tested compound (AMAX) on respective plates. Also we calculate EC50 values, or a concentration where the pathway will be exactly 50% activated, for each tested compound to determine potency. In these cell lines, compounds that register >20% AMAX values are considered active.
(§2) Stable hedgehog pathway reporter cell lines are established following specific antibiotic selection following transfection of a reporter plasmid In short, typically cells are plated in MicroTiter-plates at 10,000-20,000 cells per well, in growth media (containing 10%-20% FBS). After 48-72 hrs (HGL and DGL respectively) the media in the assay plates is switched to low-serum containing media (0.5% FBS). At that time compounds are added (at 1-5 μM) to the assay plates, in the presence or absence of hedgehog protein (octyl-modified version; 1-5 ng/ml). After another 24 hrs of incubation, the media from the assay plates is discarded and replaced with luciferase assay-mix. Subsequently, plates are incubated at RT for ˜15-30 mins and then read in a luminometer. [note: addition of the Hedgehog protein, although not critical, will sensitize the assay allowing the identification of weak actives].

[2] = test system: sonic hedgehog pathway; experiment: Hedgehog pathway Gli-luciferase reporter assay, TM3 cells; conditions: TM3 mouse Leydig cells
Description: as §1, §2

[3] = test system: sonic hedgehog pathway; experiment: Human hedgehog reporter assay Daoy-GliLuc (DGL); conditions: Daoy human medulloblastoma cells, Gli-luciferase reporter; read-out: Daoy Avg. EC50
Description: as §1, §2

Structure (SMILES) | EC50 [2] | EC50 [3] | EC50 [1]
CN[C@H]1CC[C@@H](N(Cc2cc(-c3ccnc(C)c3)ccc2OC)C(=O)c2sc3ccccc3c2Cl)CC1 [331 (R11)] | < 50 nM |  | < 50 nM
CN[C@H]1CC[C@@H](N(Cc2cc(-c3ccncc3)ccc2OC)C(=O)c2sc3ccccc3c2Cl)CC1 [339 (R12)] | < 50 nM |  | < 50 nM
CN[C@H]1CC[C@@H](N(Cc2cc(-c3ccc(C)nc3)ccc2OC)C(=O)c2sc3ccccc3c2Cl)CC1 [Compound 320, 3-Chloro-benzo[b]thiophene-2-carboxylic acid [2-methoxy-5-(6-methyl-pyridin-3-yl)-benzyl]-(4-methylamino-cyclohexyl)-amide dihydrochloride] | < 50 nM |  | < 50 nM
CN[C@H]1CC[C@@H](N(Cc2cc(-c3cccc(C#N)c3)ccc2OC)C(=O)c2sc3c(F)ccc(F)c3c2Cl)CC1 [Compound 337, 3-Chloro-4,7-difluoro-benzo[b]thiophene-2-carboxylic acid (3′-cyano-4-methoxy-biphenyl-3-ylmethyl)-(4-methylamino-cyclohexyl)-amide hydrochloride] | < 50 nM |  | < 50 nM
CCOc1ccc(-c2ccc(C(=O)C(F)(F)F)cc2)cc1CN(C(=O)c1sc2c(F)ccc(F)c2c1Cl)[C@H]1CC[C@@H](NC)CC1 [Compound 341, 3-Chloro-4,7-difluoro-benzo[b]thiophene-2-carboxylic acid [4-ethoxy-4′-(2,2,2-trifluoro-acetyl)-biphenyl-3-ylmethyl]-(4-methylamino-cyclohexyl)-amide trifluoroacetate] | < 50 nM |  | 50 to 250 nM
CN[C@H]1CC[C@@H](N(Cc2cc(-c3ccc(C#N)cc3)ccc2OC)C(=O)c2sc3c(F)ccc(F)c3c2Cl)CC1 [Compound 351, 3-Chloro-4,7-difluoro-benzo[b]thiophene-2-carboxylic acid (4′-cyano-4-methoxy-biphenyl-3-ylmethyl)-(4-methylamino-cyclohexyl)-amide hydrochloride] | < 50 nM |  | < 50 nM
CN[C@H]1CC[C@@H](N(Cc2cc(-c3cccc(C(C)=O)c3)ccc2OC)C(=O)c2sc3c(F)ccc(F)c3c2Cl)CC1 [Compound 364, 3-Chloro-4,7-difluoro-benzo[b]thiophene-2-carboxylic acid (3′-acetyl-4-methoxy-biphenyl-3-ylmethyl)-(4-methylamino-cyclohexyl)-amide hydrochloride] | < 50 nM |  | < 50 nM
CCOc1ccc(-c2ccc(N)nc2)cc1CN(C(=O)c1sc2ccccc2c1Cl)[C@H]1CC[C@H](NC)CC1 [Compound 396, 3-Chloro-benzo[b]thiophene-2-carboxylic acid [2-ethoxy-5-(6-amino-pyridin-3-yl)-benzyl]-(4-methylamino-cyclohexyl)-amide dihydrochloride] | 250 to 1000 nM |  | 50 to 250 nM

Second part, led by results:

EC50 [2] | EC50 [3] | Structure (SMILES) | EC50 [1]
250 to 1000 nM |  | CNc1ccc(-c2ccc(OC)c(CN(C(=O)c3sc4ccccc4c3Cl)[C@H]3CC[C@H](NC)CC3)c2)cn1 [Compound 397, 3-Chloro-benzo[b]thiophene-2-carboxylic acid [2-methoxy-5-(6-methylamino-pyridin-3-yl)-benzyl]-(4-methylamino-cyclohexyl)-amide dihydrochloride] | 250 to 1000 nM
250 to 1000 nM |  | CCOc1ccc(-c2cc(C)nc(C)c2)cc1CN(C(=O)c1sc2ccccc2c1Cl)[C@H]1CC[C@H](NC)CC1 [Compound 400, 3-Chloro-benzo[b]thiophene-2-carboxylic acid [5-(2,6-dimethyl-pyridin-4-yl)-2-ethoxy-benzyl]-(4-methylamino-cyclohexyl)-amide dihydrochloride] | 250 to 1000 nM
1000 to 2500 nM |  | CCOc1ccc(-c2ccc(N)nc2C)cc1CN(C(=O)c1sc2ccccc2c1Cl)[C@H]1CC[C@H](NC)CC1 [Compound 403, 3-Chloro-benzo[b]thiophene-2-carboxylic acid [5-(6-amino-2-methyl-pyridin-3-yl)-2-ethoxy-benzyl]-(4-methylamino-cyclohexyl)-amide dihydrochloride] | 250 to 1000 nM
1000 to 2500 nM |  | CCOc1ccc(-c2ccc(N(C)C)nc2)cc1CN(C(=O)c1sc2ccccc2c1Cl)[C@H]1CC[C@H](NC)CC1 [Compound 404, 3-Chloro-benzo[b]thiophene-2-carboxylic acid [5-(6-dimethylamino-pyridin-3-yl)-2-ethoxy-benzyl]-(4-methylamino-cyclohexyl)-amide bis(trifluoroacetate)] | 250 to 1000 nM
1000 to 2500 nM |  | CN[C@H]1CC[C@H](N(Cc2cc(-c3ccc(N(C)C)nc3)ccc2OC)C(=O)c2sc3ccccc3c2Cl)CC1 [Compound 405, 3-Chloro-benzo[b]thiophene-2-carboxylic acid [5-(6-dimethylamino-pyridin-3-yl)-2-methoxy-benzyl]-(4-methylamino-cyclohexyl)-amide bis(trifluoroacetate)] | 250 to 1000 nM
50 to 250 nM | 50 to 250 nM | CN[C@H]1CC[C@H](N(Cc2cc(-c3cccc(C#N)c3)ccc2F)C(=O)c2sc3ccccc3c2Cl)CC1 [Compound 420, 3-Chloro-benzo[b]thiophene-2-carboxylic acid (3′-cyano-4-fluoro-biphenyl-3-ylmethyl)-(4-methylamino-cyclohexyl)-amide trifluoroacetate] | 
250 to 1000 nM | 250 to 1000 nM | CN[C@H]1CC[C@H](N(Cc2cc(-c3ccc(C#N)cc3)ccc2F)C(=O)c2sc3ccccc3c2Cl)CC1 [Compound 423, 3-Chloro-benzo[b]thiophene-2-carboxylic acid (4′-cyano-4-fluoro-biphenyl-3-ylmethyl)-(4-methylamino-cyclohexyl)-amide trifluoroacetate] | 
< 50 nM | < 50 nM | CN[C@H]1CC[C@H](N(Cc2cc(-c3ccccc3)ccc2F)C(=O)c2sc3ccccc3c2Cl)CC1 [Compound 425, 3-Chloro-benzo[b]thiophene-2-carboxylic acid (4-fluoro-biphenyl-3-ylmethyl)-(4-methylamino-cyclohexyl)-amide trifluoroacetate] | 
< 50 nM | 50 to 250 nM | CN[C@H]1CC[C@H](N(Cc2cc(-c3ccc(N(C)C=O)cc3)ccc2F)C(=O)c2sc3ccccc3c2Cl)CC1 [Compound 426, 3-Chloro-benzo[b]thiophene-2-carboxylic acid [4-fluoro-4′-(formyl-methyl-amino)-biphenyl-3-ylmethyl]-(4-methylamino-cyclohexyl)-amide trifluoroacetate] | 
< 50 nM | < 50 nM | CN[C@H]1CC[C@H](N(Cc2cc(-c3ccc(C(O)C(F)(F)F)cc3)ccc2F)C(=O)c2sc3ccccc3c2Cl)CC1 (some centres unmarked) [Compound 433, 3-Chloro-benzo[b]thiophene-2-carboxylic acid [4-fluoro-4′-(2,2,2-trifluoro-1-hydroxy-ethyl)-biphenyl-3-ylmethyl]-(4-methylamino-cyclohexyl)-amide hydrochloride] | 
< 50 nM | < 50 nM | CN[C@H]1CC[C@H](N(Cc2cc(-c3ccc(C(=O)C(F)(F)F)cc3)ccc2F)C(=O)c2sc3c(F)ccc(F)c3c2Cl)CC1 [Compound 434, 3-Chloro-4,7-difluoro-benzo[b]thiophene-2-carboxylic acid [4-fluoro-4′-(2,2,2-trifluoro-acetyl)-biphenyl-3-ylmethyl]-(4-methylamino-cyclohexyl)-amide hydrochloride] | 
